Reference: PubChem BioAssay (NCI)
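The compound was tested at five concentrations on cells cultured in 96-well plates, with a 48-hour exposure period. Abbreviation: GI50, concentration required for 50% inhibition of growth. Definition used: TGI = concentration required for complete inhibition of growth.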

Assays:
Experiment in all cases: NCI anticancer screen, dose series, 48 h
786-0 renal = test system: 786-0 renal
COLO 205 colon = test system: COLO 205 colon
HCT-116 colon = test system: HCT-116 colon
HOP-92 NSCLC = test system: HOP-92 NSCLC
LOX IMVI melanoma = test system: LOX IMVI melanoma
M14 melanoma = test system: M14 melanoma
NCI-H460 lung = test system: NCI-H460 lung
SK-MEL-2 melanoma = test system: SK-MEL-2 melanoma
SK-MEL-28 melanoma = test system: SK-MEL-28 melanoma
HS 578T breast = test system: HS 578T breast

SMILES | TGI (786-0 renal) | TGI (COLO 205 colon) | TGI (HCT-116 colon) | TGI (HOP-92 NSCLC) | TGI (LOX IMVI melanoma) | TGI (M14 melanoma) | TGI (NCI-H460 lung) | TGI (SK-MEL-2 melanoma) | TGI (SK-MEL-28 melanoma) | GI50 (786-0 renal) | GI50 (COLO 205 colon) | GI50 (HCT-116 colon) | GI50 (HS 578T breast) | TGI (HS 578T breast) | GI50 (LOX IMVI melanoma) | GI50 (M14 melanoma) | GI50 (NCI-H460 lung) | GI50 (SK-MEL-2 melanoma) | GI50 (SK-MEL-28 melanoma) | GI50 (HOP-92 NSCLC)
O=C(OCCOCCOC(=O)c1c[nH]cc1-c1ccccc1)c1c[nH]cc1-c1ccccc1 | 73.1 µM | 35.6 µM | 31.6 µM | 47.8 µM | 30.2 µM | 28.2 µM | 46.9 µM |  |  |  |  |  |  |  |  |  |  |  |  | 
Cc1ccc(S(=O)(=O)N2CCCCC2CCO)cc1 (stereo not drawn) | > 100 µM | > 100 µM | > 100 µM | > 100 µM |  | > 100 µM | > 100 µM | > 100 µM |  |  |  |  |  |  |  |  |  |  |  | 
COC(=O)C1Cc2c([nH]c3ccccc23)C=N1 (stereo not drawn) | > 100 µM | > 100 µM | > 100 µM | > 100 µM | > 100 µM | > 100 µM | > 100 µM |  | > 100 µM |  |  |  |  |  |  |  |  |  |  | 
Cc1cc2c(=O)cc(-c3ccc(Cl)cc3)oc2c(C(=O)O)c1C | > 100 µM | > 100 µM | > 100 µM |  | > 100 µM | > 100 µM | > 100 µM | > 100 µM | > 100 µM |  |  |  |  |  |  |  |  |  |  | 
CCOC(=O)[C@H]1Nc2ccc(O)cc2C2c3ccccc3CC21 (stereo partly drawn) | > 100 µM | > 100 µM | > 100 µM |  | > 100 µM | > 100 µM | > 100 µM | > 100 µM | 98 µM |  |  |  |  |  |  |  |  |  |  | 
CCCCCCCCSC1=CC(=O)C(OC)=C(OC)C1=O | 20.1 µM | 14.6 µM | 2.54 µM |  | 2.11 µM | 9.86 µM | 19.8 µM | 13.7 µM | 20.3 µM | 7.86 µM | 4.17 µM | 1.19 µM | 2.64 µM | 9.85 µM | 0.767 µM | 2.06 µM | 6.29 µM | 4.3 µM | 6.7 µM | 
N#C/C(=C/N1CCN(C(=O)c2ccco2)C1=S)C(N)=O | 46.9 µM | > 100 µM | 92.9 µM | > 100 µM | 7.69 µM | 43.2 µM | 50.7 µM | 62.3 µM | > 100 µM | 18 µM | 24.9 µM | 21.2 µM |  |  | 2.5 µM | 16.5 µM | 3.99 µM | 24.4 µM | 15.8 µM | 25.5 µM
CCCCOC(=O)N[C@H]1CCc2cc(OC)c(OC)c(OC)c2-c2ccc(SC)c(=O)cc21 | 25.5 µM | < 0.01 µM | 1.18 µM | 30.9 µM | 20.9 µM | 15.6 µM | 0.115 µM | 2.02 µM | 16.2 µM |  |  |  |  |  |  |  |  |  |  | 
Cc1ccc(/C=C2\CCOC2=O)cc1 | > 100 µM | > 100 µM | > 100 µM | > 100 µM | > 100 µM | > 100 µM | > 100 µM | > 100 µM | > 100 µM | > 100 µM | > 100 µM | > 100 µM |  |  | > 100 µM | > 100 µM | > 100 µM | > 100 µM | > 100 µM | > 100 µM
O=c1c2ccccc2nc(-c2ccc(Cl)cc2)n1O | 94.4 µM | > 100 µM | > 100 µM | 88.8 µM |  | > 100 µM | > 100 µM |  |  |  |  |  |  | > 100 µM |  |  |  |  |  | 
Cc1ccccc1NC(=O)c1[nH]c(=S)nc(N)c1-c1ccccc1C | > 100 µM | > 100 µM | > 100 µM | > 100 µM | > 100 µM | > 100 µM | > 100 µM | > 100 µM | > 100 µM |  |  |  |  |  |  |  |  |  |  | 
O=C(Nc1ccccc1Cl)c1ccc(NC2=C(Cl)C(=O)N(Cc3ccccc3)C2=O)cc1 | 57.3 µM | > 100 µM | 47.5 µM |  | 32.6 µM | > 100 µM | > 100 µM |  | > 100 µM | 24.8 µM | 51.3 µM | 21.4 µM | 32.7 µM | 69.3 µM | 17.9 µM | 79.4 µM | 33.3 µM |  | 43 µM | 
Cc1c(Cl)cccc1NC(=O)C(=O)C1C(=O)NC(=O)NC1=O | > 100 µM | > 100 µM | > 100 µM | > 100 µM | > 100 µM | > 100 µM | > 100 µM | > 100 µM | > 100 µM |  |  |  |  |  |  |  |  |  |  | 
CC1=C(C)C(=O)C(C(C)C2=C(C)C(=O)C(C)=C(C)C2=O)=C(C)C1=O | > 100 µM | > 100 µM | 24.8 µM | 39.7 µM | > 100 µM | > 100 µM | > 100 µM | > 100 µM |  | 50.8 µM | 32.6 µM | 10.8 µM | 29.2 µM | > 100 µM | 19 µM | 53.7 µM | 26.7 µM | 33.8 µM |  | 13.8 µM
CC(C)(C)NNc1c([N+](=O)[O-])cnn(-c2ccccc2)c1=O | 13.4 µM | 12.6 µM | 5.63 µM | 12.3 µM | 3.32 µM | 4.88 µM | 26.3 µM |  | 5.79 µM |  |  |  |  | 26.1 µM |  |  |  |  |  | 
CC(C)[C@]12O[C@H]1[C@@H]1O[C@]13[C@]1(O[C@H]1C[C@H]1c4c(C(=O)c5ccccc5)oc(OC(=O)c5ccccc5)c4CC[C@@]13C)[C@@H]2O | 5.22 µM |  | > 100 µM |  | 14.8 µM | 0.0688 µM | 11.4 µM | 0.0781 µM | 0.0612 µM | 0.0352 µM |  | 0.0142 µM | 0.0303 µM | 0.996 µM | 0.0144 µM | 0.0236 µM |  | 0.0252 µM | 0.0184 µM | 0.0649 µM
CC(CN(CP(=O)([O-])[O-])CP(=O)([O-])[O-])N(CP(=O)([O-])[O-])CP(=O)([O-])[O-].N[C@@H]1CCCC[C@@H]1N.[Pt+2] (stereo not drawn) | > 100 µM | > 100 µM | > 100 µM | > 100 µM | > 100 µM | > 100 µM | > 100 µM | > 100 µM | > 100 µM | > 100 µM | > 100 µM | > 100 µM |  |  | > 100 µM | > 100 µM | > 100 µM | > 100 µM | > 100 µM | > 100 µM
